Measurements as given in US9301952B2, “Diarylpyridine anti-viral compounds” (Kineta, Inc., priority 2010, dated 2016).
pIC50: −log10 of the molar value. Read-outs that look alike come from different tables or passages of the source.

Tests used:
[1] = test system: Murine Encephalomyocarditis virus (EMCV); assay: EMCV antiviral assay (cell viability by MTS after infection); assay type: cell-based; details: Huh7 cells, EMCV 250 pfu
IRF-3 = assay: Activation of IRF-3; assay type: cell-based
HCV RNA = assay: Decrease of HCV RNA; assay type: cell-based, Hepatitis C virus
Method: KIN400 compounds are tested for in vitro antiviral activity against HCV 2A and influenza A virus (A/WSN/33). Viral protein and RNA levels are assessed following drug treatment using the assays described above.

[2] = MTS assay to determine cytotoxicity; assay type: cell-based, human; details: human; Huh7 cells, 24 hours
Method: (§1) MTS assay to determine cytotoxicity. Cultured human Huh7 cells are treated with increasing amounts of compound or equivalent amounts of DMSO diluted in media for 24 hours to see their effect on cell viability. The proportion of viable cells is calculated using a cell viability assay that measures conversion of a tetrazolium compound [[…]-5-(3-carboxymethoxyphenyl)-2-(4-sulfophenyl)-2H-tetrazolium, inner salt; MTS] to a colored formazan compound in live cells.
(§2) The conversion of MTS to formazan is detected in a 96-well microtiter plate reader, and the resulting optical densities can be plotted directly to estimate cell viability. […] Compounds were diluted to final concentrations of 0, 5, 10, 20, and 50 uM in media containing 0.5% DMSO. Negative control wells contain no compound and positive control for cytotoxicity is examined using an EMCV infection which causes 100% cytopathic effect. Each compound concentration and control is done in triplicate wells to generate error bars.

Huh7 cells = assay: MTS assay to determine cytotoxicity; assay type: cell-based, human
Method: as §1, §2

Influenza WSN strain [3] = test system: Influenza WSN strain
Influenza WSN strain [4] = assay: microbe, parasite or virus in culture; details: Influenza A virus, A549, read-out: Influenza nucleoprotein (NP) ELISA (IC50)
HCV2a = assay: HCV focus-forming assay (FFA) / HCV IF antiviral assay; assay type: cell-based, Hepatitis C virus
Method: FIG. 1 is a graph of an HCV focus-forming assay. Huh7 cells were pre-treated with compound KIN400 for 24 hours and infected with HCV2a at an multiplicity of infection (MOI) of 0.5 for 48 hours. HCV protein was detected by immunofluorescent staining with viral-specific serum and foci were normalized to negative control cells that were not drug treated (equal to 1).
HCV IF antiviral assay. Huh7 cells are seeded on a 96 well plate at 5×10^3 cells per well and cells are allowed to attach and grow for 24 hours. Compounds that have been diluted to 10 uM in media and contain a final concentration of 0.5% DMSO are added to each well and grown another 24 hours. The compound media solution is removed from the plate and stored in a clean tissue culture dish. Cell monolayers are washed with PBS and HCV2a virus is added at the stated MOI. Virus is incubated for 2-4 hours and then removed, the monolayers are washed with PBS and the compound solutions are replaced into each well.
The cells are grown overnight and then cells are fixed and stained for HCV proteins. All buffers and reagents are used from the Cellomics staining kits described above. Primary serum PHS#72 is diluted 1:3,000 in wash buffer and incubated at room temperature 1 hour. […] The number of infected cells is counted and representative images are saved.

## N#Cc1c(-c2ccccc2)cc(-c2ccccc2)nc1SCC(=O)N1CCOCC1 [KIN400]
[1]; 5 μM
  Cell viability post-infection: ~0.75
[1]; 10 μM
  Cell viability post-infection: ~0.95
[1]; 20 μM
  Cell viability post-infection: ~1.05
IRF-3
  activation of IRF-3: activation of IRF-3
HCV RNA
  Decrease HCV RNA: Yes
HCV RNA; listed as KIN100
  Decrease HCV RNA: decrease in HCV RNA
[2]
  CC50 at 24 h: > 50 µM
Huh7 cells
  CC50: > 50 µM
  cytotoxicity (in words): low cytotoxicity
Influenza WSN strain [3]
  Therapeutic index (TI) (CC50/IC50): > 10
Influenza WSN strain [3]; listed as KIN100
  Therapeutic index (TI) (CC50/IC50): 250
Influenza WSN strain [3]; influenza virus strain WSN
  antiviral activity against influenza virus (in words): antiviral activity against influenza virus
Influenza WSN strain [4]
  pIC50: 6.70
HCV2a; Hepatitis C virus, Huh-7, Huh7 cells
  pIC50: 5.29
HCV2a; Huh7 cells
  pIC50: 5.29
